According to publication PMC3172300, “Modulation of Catalytic Activity in Multi-Domain Protein Tyrosine Phosphatases” (PLoS ONE, 2011):
Like-named read-outs stand apart in the source and are kept apart here. Square brackets hold non-standard residues; d marks the D form. Ends that are not written are not given here. Peptide text beside a SMILES is read from it. pY = N[C@@H](Cc1ccc(OP(=O)(O)O)cc1)C(=O)O

Columns and labels:
[1] = target: T1, DLAR D1 D2HSS (Drosophila melanogaster, UniProt P16621, C1961S); assay type: biochemical; conditions: 0.01 µM protein; for Km / Kcat / Kcat/Km: 25 mM citrate pH 6.0, 15 min at 25°C, malachite green; for Vmax: 25 mM citrate buffer pH 6.0, 100 mM NaCl, 2 mM DTT, 15 min at 25°C, Biomol Green, 650 nm, Michaelis-Menten fit
T1 construct: DLAR 1448-2029; His tag (pET-15b or pET-22b); made in house; host or cells: E. coli BL21(DE3)
Excerpt: (§1) Substrates of PTPs characterized thus far include the activation loop segments of various kinases and regulatory loops of other signaling proteins. Suitably designed peptide substrates mimic the physiologically relevant substrates of PTPs. In the present study, peptide substrates were designed for DLAR for which more information was available on its interacting partners. […] The five peptides were chosen based on their distinct charge distributions around the central phosphotyrosine residue. The phosphorylated as well as non-phosphorylated peptides were obtained from GL Bioscience, China. The peptides were >95% pure and were used after a single round of desalting using a Sephadex G25 column (GE Healthcare). The concentration of the peptide samples for biochemical studies was ascertained by UV absorption at 268 nm for the pY residue.
(§2) Phosphatase activity of the recombinant PTP domains was determined by using para-Nitrophenylphosphate (pNPP), a small molecule generic substrate, as well as phosphotyrosine containing peptides. The pNPP assay was performed as reported previously, with a modification in the buffer composition (25 mM Citrate, Glycine and HEPES (CGH), pH 6.5, 100 mM NaCl and 2 mM DTT). Phosphatase activity with the phosphotyrosine peptides was ascertained by the malachite green reaction as described for PTPs previously. Briefly, the reaction mixture comprised of 0.01 µM protein incubated with increasing concentrations of different peptides in 25 mM citrate buffer pH 6.0, 100 mM NaCl and 2 mM DTT for 15 min at 25°C. The reaction was stopped by the addition of the Biomol Green reagent (Enzo Life Sciences) and the colour developed after 20 min was quantified at 650 nm. For all the assays, kinetic constants for the steady state catalysis were obtained by fitting the reaction curves to the Michaelis-Menten equation using the nonlinear regression module of Sigma plot software (Systat Software, Inc.).

[2] = target: T2, DLAR D1 (Drosophila melanogaster, UniProt P16621); test: Dephosphorylation of phosphotyrosine peptides (malachite green), DLAR D1; assay type: biochemical; conditions: for Km / Vmax / Kcat / Kcat/Km: 0.01 µM protein; for Km / Kcat / Kcat/Km: 25 mM citrate pH 6.0, 15 min at 25°C, malachite green; for Vmax: 25 mM citrate buffer pH 6.0, 100 mM NaCl, 2 mM DTT, 15 min at 25°C, Biomol Green, 650 nm, Michaelis-Menten fit; for peptide preference: order of peptide substrates, DLAR D1 domain
T2 construct: DLAR 1448-1746; His tag (pET-15b or pET-22b); made in house; host or cells: E. coli BL21(DE3)
T2 sequence (P16621 1448-1746): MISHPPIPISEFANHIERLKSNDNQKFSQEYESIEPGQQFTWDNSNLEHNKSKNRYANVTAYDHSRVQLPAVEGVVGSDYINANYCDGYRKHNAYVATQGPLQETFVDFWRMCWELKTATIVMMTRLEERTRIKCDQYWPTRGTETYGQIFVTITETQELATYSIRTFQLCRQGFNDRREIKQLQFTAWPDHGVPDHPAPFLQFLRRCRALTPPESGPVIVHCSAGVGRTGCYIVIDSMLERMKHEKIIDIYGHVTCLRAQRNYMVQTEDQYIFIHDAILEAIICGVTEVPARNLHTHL
Excerpt: as §1, §2

[3] = target: T3, PTP99A D1D2 (Drosophila melanogaster, UniProt P35832); test: Dephosphorylation of phosphotyrosine peptides (malachite green), PTP99A D1D2; conditions: for Vmax / Kcat / Kcat/Km / Km: 0.01 µM protein; for Vmax: 25 mM citrate buffer pH 6.0, 100 mM NaCl, 2 mM DTT, 15 min at 25°C, Biomol Green, 650 nm, Michaelis-Menten fit; for Kcat / Kcat/Km / Km: 25 mM citrate pH 6.0, 15 min at 25°C, malachite green; for substrate preference: order of peptide substrates, PTP99A D1D2
T3 sequence (P35832 450-1050): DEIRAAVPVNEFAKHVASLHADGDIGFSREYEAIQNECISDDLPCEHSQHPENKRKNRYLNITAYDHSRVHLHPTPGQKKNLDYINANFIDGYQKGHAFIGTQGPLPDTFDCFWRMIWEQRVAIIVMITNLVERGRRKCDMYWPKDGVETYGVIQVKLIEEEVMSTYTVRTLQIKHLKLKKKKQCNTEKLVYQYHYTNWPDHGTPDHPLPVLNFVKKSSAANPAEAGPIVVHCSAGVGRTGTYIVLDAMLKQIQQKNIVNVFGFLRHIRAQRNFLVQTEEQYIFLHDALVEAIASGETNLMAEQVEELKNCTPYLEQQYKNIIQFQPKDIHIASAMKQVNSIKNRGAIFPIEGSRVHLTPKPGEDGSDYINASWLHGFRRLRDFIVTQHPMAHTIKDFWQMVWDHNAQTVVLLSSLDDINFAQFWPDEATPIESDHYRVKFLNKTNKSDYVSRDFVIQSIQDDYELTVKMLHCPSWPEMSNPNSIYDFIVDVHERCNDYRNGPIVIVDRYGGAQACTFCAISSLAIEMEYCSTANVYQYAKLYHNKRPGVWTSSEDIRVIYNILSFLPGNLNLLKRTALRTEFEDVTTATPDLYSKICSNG
Excerpt: as §1, §2

[4] = target: T4, DLAR D2 (Drosophila melanogaster, UniProt P16621); test: Peptide preference of the DLAR D2 domain from ratios of kcat/Km (D1D2 vs D1); assay type: biochemical; conditions: order of peptide substrates, from comparison of kcat/Km of D1D2 with D1
T4 construct: DLAR 1728-2029; His tag (pET-15b or pET-22b); made in house; host or cells: E. coli BL21(DE3)
T4 sequence (P16621 1728-2029): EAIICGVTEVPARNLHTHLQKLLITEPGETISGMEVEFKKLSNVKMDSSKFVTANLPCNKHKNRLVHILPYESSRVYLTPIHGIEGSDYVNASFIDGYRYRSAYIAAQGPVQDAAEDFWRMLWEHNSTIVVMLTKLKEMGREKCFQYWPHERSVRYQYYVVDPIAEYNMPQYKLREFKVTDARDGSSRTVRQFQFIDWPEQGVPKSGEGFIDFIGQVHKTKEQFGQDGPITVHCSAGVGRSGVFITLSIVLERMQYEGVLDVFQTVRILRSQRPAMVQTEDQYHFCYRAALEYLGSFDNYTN
Experimental: as §2
The difference between the most and least preferred substrate in the case of DLAR D1D2 was much less (∼16.0×10^4 sec^−1 M^−1 between Cuticle and Myospheroid peptides) when compared to DLAR D1 alone (∼130.0×10^4 sec^−1 M^−1 between Insulin Receptor and Abelson peptides). […] A more comprehensive study of this activation mechanism is being reported elsewhere.

T1 sequence (P16621 1448-2029 C1961S): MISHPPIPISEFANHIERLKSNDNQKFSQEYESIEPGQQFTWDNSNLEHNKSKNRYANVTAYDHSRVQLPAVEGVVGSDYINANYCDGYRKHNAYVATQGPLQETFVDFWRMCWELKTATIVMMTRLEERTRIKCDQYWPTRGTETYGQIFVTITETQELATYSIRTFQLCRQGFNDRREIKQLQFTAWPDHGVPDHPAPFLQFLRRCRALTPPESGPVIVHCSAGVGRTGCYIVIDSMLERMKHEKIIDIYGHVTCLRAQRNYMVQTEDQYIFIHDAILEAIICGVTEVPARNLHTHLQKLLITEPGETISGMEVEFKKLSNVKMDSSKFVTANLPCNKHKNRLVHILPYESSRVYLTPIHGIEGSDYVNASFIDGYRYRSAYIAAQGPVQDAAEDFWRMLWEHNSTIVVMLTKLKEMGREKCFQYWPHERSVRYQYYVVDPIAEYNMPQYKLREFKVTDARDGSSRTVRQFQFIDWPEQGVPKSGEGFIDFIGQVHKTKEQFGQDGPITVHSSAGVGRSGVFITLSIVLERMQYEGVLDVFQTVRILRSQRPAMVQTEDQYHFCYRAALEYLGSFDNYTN

Molecule | Km [1] | Km [2] | Vmax [1] | Kcat [1] | Kcat/Km [1] | Km ([1]; read-out: Km) | Vmax [2] | Kcat [2] | Kcat/Km [2] | Km ([2]; read-out: Km) | peptide preference [2] | Vmax [3] | Kcat [3] | Kcat/Km [3] | Km [3] | substrate preference [3] | peptide preference [4]
CC(C)C[C@H](NC(=O)[C@H](C)NC(=O)CNC(=O)[C@H](Cc1ccc(OP(=O)(O)O)cc1)NC(=O)[C@H](CC(=O)O)NC(=O)[C@@H]1CCCN1C(=O)[C@H](CCC(=O)O)NC(=O)[C@H](C)NC(=O)[C@@H](N)[C@@H](C)O)C(=O)N[C@@H](Cc1ccc(O)cc1)C(=O)N[C@@H](CCC(=O)O)C(=O)O [Cuticle peptide] (H-TAEPD[pY]GALYE-OH) | 162 ± 13.8 µM | 56.5 ± 4.64 µM | – | – | – | – | – | – | – | – | – | – | – | – | – | – | –
CDDS[pY]FGNKC (cysteine pairing not given here) [Myospheroid peptide, phosphotyrosine peptide CDDSpYFGNKC from PeptideMine server, obtained from GL Bioscience, >95% pure] | – | – | 3.11 ± 0.12 µmol/min/mg | 3.7 ± 0.15 s⁻¹ | 5.79 ± 0.08 x 10^4 sec^-1M^-1 | 63.9 ± 7.99 µM | 29.58 ± 0.84 µmol/min/mg | 23.66 ± 0.67 s⁻¹ | 30.14 ± 0.06 x 10^4 sec^-1M^-1 | 78.5 ± 6.67 µM | Insulin receptor peptide>Cuticle peptide>Nervous fingers peptide>Myospheroid peptide>Abelson peptide | 1.09 ± 0.03 µmol/min/mg | 1.35 ± 0.03 s⁻¹ | 44.1 ± 1.22 x 10^4 sec^-1M^-1 | 3.06 ± 0.36 µM | Insulin Receptor peptide>Cuticle peptide>Myospheroid>Abelson peptide>Nervous fingers peptide | Insulin Receptor peptide>Nervous fingers peptide>Cuticle peptide>Myospheroid peptide>Abelson peptide
RDDT[pY]TAHAG [Abelson peptide, phosphotyrosine peptide RDDTpYTAHAG from PeptideMine server, obtained from GL Bioscience, >95% pure] | – | – | 0.6 ± 0.01 µmol/min/mg | 0.72 ± 0.01 s⁻¹ | 5.82 ± 0.07 x 10^4 sec^-1M^-1 | 12.4 ± 1.07 µM | 4.95 ± 0.59 µmol/min/mg | 3.96 ± 0.68 s⁻¹ | 21.77 ± 0.32 x 10^4 sec^-1M^-1 | 18.2 ± 8.98 µM | Insulin receptor peptide>Cuticle peptide>Nervous fingers peptide>Myospheroid peptide>Abelson peptide | 2.59 ± 0.07 µmol/min/mg | 3.21 ± 0.08 s⁻¹ | 19.97 ± 0.15 x 10^4 sec^-1M^-1 | 16.3 ± 1.55 µM | Insulin Receptor peptide>Cuticle peptide>Myospheroid>Abelson peptide>Nervous fingers peptide | Insulin Receptor peptide>Nervous fingers peptide>Cuticle peptide>Myospheroid peptide>Abelson peptide
VIGD[pY]VCRLCK (cysteine pairing not given here) [Nervous Fingers peptide, phosphotyrosine peptide VIGDpYVCRLCK from PeptideMine server, obtained from GL Bioscience, >95% pure] | – | – | 7.9 ± 0.35 µmol/min/mg | 9.42 ± 0.42 s⁻¹ | 7.02 ± 0.07 x 10^4 sec^-1M^-1 | 134 ± 14.9 µM | 37.5 ± 1.4 µmol/min/mg | 30 ± 1.12 s⁻¹ | 78.51 ± 0.09 x 10^4 sec^-1M^-1 | 38.2 ± 5.05 µM | Insulin receptor peptide>Cuticle peptide>Nervous fingers peptide>Myospheroid peptide>Abelson peptide | 8.89 ± 0.38 µmol/min/mg | 11.01 ± 0.46 s⁻¹ | 6.12 ± 0.12 x 10^4 sec^-1M^-1 | 180 ± 15 µM | Insulin Receptor peptide>Cuticle peptide>Myospheroid>Abelson peptide>Nervous fingers peptide | Insulin Receptor peptide>Nervous fingers peptide>Cuticle peptide>Myospheroid peptide>Abelson peptide
